Source: patent US12358983B2, “Combination of anti CD19 antibody with a BCL-2 inhibitor and uses thereof” (Incyte Corporation, priority 2016, dated 2025)

What was measured:
[1] = tested on: TOLEDO human lymphoma cell tumors; experiment: Subcutaneous human lymphoma cell xenograft model in SCID mice; details: MOR00208 11 mg/kg i.p. twice weekly
Experimental: Toledo cell line and culture medium were purchased and provided by Oncodesign. […] The cells are adherent to plastic flasks.
A statistical test (analysis of variance, ANOVA) was performed to test for homogeneity between groups. MOR208 was injected intraperitoneally (IP) into the peritoneal cavity of mice. Combined substance was administered by oral gavage (per os, PO) via a gavage tube.
The treatment schedule initiated at D23 was as follows:
Animals from group 1 received one daily PO administration of PEP and one IP injection twice a week of PBS.
Animals from group 4 received one IP injection of MOR208 at 11 mg/kg/inj on D23, D27, D30, D34, D37 and D41 followed by a single IP injection of MOR208 at 11 mg/kg/inj on D48 (twice a week).
The viability and behavior were recorded every day. Body weights and tumor volume were measured twice a week. The length and width of the tumor were measured twice a week with calipers and the volume of the tumor was estimated by the formula:

MEC-1 cells = experiment: Cytotoxicity (ADCC assay with NK effector cells) of MOR00208 and venetoclax alone and in combination in MEC-1 cells; type: cell-based
Text: Cell lines tested: MEC-1 cells (DSMZ# ACC497). Culture conditions of cell lines used are according to supplier's information. Cell Medium: lscove's Modified Dulbecco's Medium (IMDM), Invitrogen, Cat No.: 31980; RPMI1640, Invitrogen, Cat No.: 31870; GlutaMAX, Invitrogen, CAT No.: 35050; FCS: Sigma CAT No.: F7524 LOT No.: 111M3396. NKs: RPMI1640, with GlutaMAX, Invitrogen, Cat No.: 31870, 10% FCS; Biocoll: Biochrome AG CAT No.: L6115 LOT No.: 0034D; MACS NK cell isolation kit: Miltenyi Biotec CAT No.: 130-092-657 LOT No.: 5150402327; venetoclax: Selleck Chem. CAT No.: S8048 LOT No.: S804803; FCS: Sigma CAT No.: F7524 LOT No.: 111M3396; and RefmAb33 (anti-RSV) with same Fc region as MOR00208.
The cytotoxic potential of MOR00208 and venetoclax alone and in combination were tested in the MEC-1 cell line (CLL). Target cell killing is measured using the following parameters: venetoclax mono treatment at concentrations of 3 μM, 6.5 μM, and 10 μM; MOR00208 mono treatment at concentrations of 0.01 pM, 0.1 pM, 1 pM, 10 pM, 100 pM and 10 nM, and the combination treatment of the listed venetoclax and MOR00208 concentrations. The following are used as controls: RefnnAb33, NK cells alone, MEC-1 cells alone or DMSO. In the venetoclax mono groups as well as in the MOR00208+venetoclax combination groups, target cells were pretreated with venetoclax or with DMSO control for 24 hours followed by removal of the dead cells prior to the ADCC assay. A dead cell removal kit was used to remove cells killed by the cytotoxic effect of venetoclax. The dead cell removal kit was implemented to mimick the removal of dead cells that also occurs in vivo and to prevent false negative interference of the dead cells with the subsequent ADCC assay. For the ADCC assay, target cells are counted and stained using CFSE at a final concentration of 1 μg/mL. For the control group, i.e. DMSO treated target cells, the effector: target (E:T) cell ratio was adjusted to 2:1, i.e. 1×10E6/nnL effector cells (NK cells) and 5×10E5/mL target cells (MEC-1 cells). […] The ADCC assays were performed as follows: using 96 well plates, 100 μL of MEC-1 target cell suspension was added per well, followed by 100 μL NK effector cell suspension per well. Mixed cell suspensions were centrifuged and resuspended in 100 μL antibody containing medium or the according control solution. The antibodies were diluted in a range of 10 nM-0.01 pM (corresponds to 1.5 μg/mL-1.5 pg/mL) in medium. The ADCC assays were incubated for 2 hours in a CO2-incubator at 37° C. After 10 minutes incubation on ice, 50 μL DAPI solution was added to each well (final concentration 1 μg/mL) and incubated for additional 10 minutes on ice. The ADCC measurements were performed on a BD FACSVerse instrument. Dead target cells were identified as DAPI positive cells.
Combination Index (CI) calculations are completed in order to determine synergy of the combination of the exemplified anti-CD19 antibody and venetoclax as compared to MOR00208 and venetoclax alone. Such calculations are described in Ting-Chao Chou, Theoretical Basis, Experimental Design, and Computerized Simulation of Synergism and Antagonism in Drug Combination Studies, Pharmacol Rev 58:621-681 (2006), which is incorporated by reference in its entirety and Chou TC, Talalay P, Quantitative analysis of dose-effect relationships: the combined effects of multiple drugs or enzyme inhibitors. Adv Enzyme Regul 22: 27-55 (1984), which is incorporated by reference in its entirety. The methods of Chou-Talalay are carried out using the CI-isobol method.
The median-effect equation models the effect of an inhibitor (such as a drug) as Fa/Fu=(D/D50)^m, where D is the dose, Fa and Fu is the fraction of the system affected and unaffected by the dose D (Fa+Fu=1); D50 is the dose producing the median effect (e.g. IC50, ED50, LD50). The constant m determines the shape of the dose-effect curve.

MOR00208: anti-CD19 antibody; heavy chain SEQ ID NO: 14, light chain SEQ ID NO: 15
Median Tumor Doubling Time [1]: 8.0 days
Median Survival (Days Post-Randomization) ([1]; humane endpoint tumor volume 2000 mm3): 25.3 days
Median % Increase in Doubling Time (IDT) ([1]; vs. PEP/PBS Control): 18%
Median % Increase in Lifespan (ILS) ([1]; vs. PEP/PBS Control): 20%
Actual MOR00208 Effect (MEC-1 cells; Exp 1, MOR00208 1.50E+00 μg/mL): 69.4 % dead cells
Actual MOR00208 Effect (MEC-1 cells; Exp 1, MOR00208 1.50E−02 μg/mL): 66.8 % dead cells
Actual MOR00208 Effect (MEC-1 cells; Exp 1, MOR00208 1.50E−03 μg/mL): 43.4 % dead cells
Actual MOR00208 Effect (MEC-1 cells; Exp 1, MOR00208 1.50E−04 μg/mL): 22.8 % dead cells
Actual MOR00208 Effect (MEC-1 cells; Exp 1, MOR00208 1.50E−05 μg/mL): 17.4 % dead cells
Actual MOR00208 Effect (MEC-1 cells; Exp 1, MOR00208 1.50E−06 μg/mL): 15.3 % dead cells
Theoretical MOR00208 Dose (MEC-1 cells; Exp 1, same effect as MOR00208 1.50E+00 μg/mL + venetoclax 3.0 μM): * 1.00E+03^ μg/mL
Theoretical MOR00208 Dose (MEC-1 cells; Exp 1, same effect as MOR00208 1.50E+00 μg/mL + venetoclax 6.5 μM): * 1.00E+03^ μg/mL
Theoretical MOR00208 Dose (MEC-1 cells; Exp 1, same effect as MOR00208 1.50E+00 μg/mL + venetoclax 10.0 μM): * 1.00E+03^ μg/mL
Theoretical MOR00208 Dose (MEC-1 cells; Exp 1, same effect as MOR00208 1.50E−02 μg/mL + venetoclax 3.0 μM): 0.0304 µg/mL
Theoretical MOR00208 Dose (MEC-1 cells; Exp 1, same effect as MOR00208 1.50E−02 μg/mL + venetoclax 6.5 μM): * 1.00E+03^ μg/mL
Theoretical MOR00208 Dose (MEC-1 cells; Exp 1, same effect as MOR00208 1.50E−02 μg/mL + venetoclax 10.0 μM): * 1.00E+03^ μg/mL
Theoretical MOR00208 Dose (MEC-1 cells; Exp 1, same effect as MOR00208 1.50E−03 μg/mL + venetoclax 3.0 μM): 0.00125 µg/mL
Theoretical MOR00208 Dose (MEC-1 cells; Exp 1, same effect as MOR00208 1.50E−03 μg/mL + venetoclax 6.5 μM): 0.00404 µg/mL
Theoretical MOR00208 Dose (MEC-1 cells; Exp 1, same effect as MOR00208 1.50E−03 μg/mL + venetoclax 10.0 μM): 0.00914 µg/mL
Theoretical MOR00208 Dose (MEC-1 cells; Exp 1, same effect as MOR00208 1.50E−04 μg/mL + venetoclax 3.0 μM): 0.000132 µg/mL
Theoretical MOR00208 Dose (MEC-1 cells; Exp 1, same effect as MOR00208 1.50E−04 μg/mL + venetoclax 6.5 μM): 0.00041 µg/mL
Theoretical MOR00208 Dose (MEC-1 cells; Exp 1, same effect as MOR00208 1.50E−04 μg/mL + venetoclax 10.0 μM): 0.000543 µg/mL
Theoretical MOR00208 Dose (MEC-1 cells; Exp 1, same effect as MOR00208 1.50E−05 μg/mL + venetoclax 3.0 μM): 1.41e-05 µg/mL
Theoretical MOR00208 Dose (MEC-1 cells; Exp 1, same effect as MOR00208 1.50E−05 μg/mL + venetoclax 6.5 μM): 8.47e-05 µg/mL
Theoretical MOR00208 Dose (MEC-1 cells; Exp 1, same effect as MOR00208 1.50E−05 μg/mL + venetoclax 10.0 μM): 0.000163 µg/mL
Theoretical MOR00208 Dose (MEC-1 cells; Exp 1, same effect as MOR00208 1.50E−06 μg/mL + venetoclax 10.0 μM): 2.33e-05 µg/mL
Actual MOR00208 Effect (MEC-1 cells; Exp 2, MOR00208 1.50E+00 μg/mL): 74.8 % dead cells
Actual MOR00208 Effect (MEC-1 cells; Exp 2, MOR00208 1.50E−02 μg/mL): 69.6 % dead cells
Actual MOR00208 Effect (MEC-1 cells; Exp 2, MOR00208 1.50E−03 μg/mL): 55.9 % dead cells
Actual MOR00208 Effect (MEC-1 cells; Exp 2, MOR00208 1.50E−04 μg/mL): 40.3 % dead cells
Actual MOR00208 Effect (MEC-1 cells; Exp 2, MOR00208 1.50E−05 μg/mL): 34.5 % dead cells
Actual MOR00208 Effect (MEC-1 cells; Exp 2, MOR00208 1.50E−06 μg/mL): 29.7 % dead cells
Theoretical MOR00208 Dose (MEC-1 cells; Exp 2, same effect as MOR00208 1.50E+00 μg/mL + venetoclax 3.0 μM): * 1.00E+03^ μg/mL
Theoretical MOR00208 Dose (MEC-1 cells; Exp 2, same effect as MOR00208 1.50E+00 μg/mL + venetoclax 6.5 μM): * 1.00E+03^ μg/mL
Theoretical MOR00208 Dose (MEC-1 cells; Exp 2, same effect as MOR00208 1.50E+00 μg/mL + venetoclax 10.0 μM): * 1.00E+03^ μg/mL
Theoretical MOR00208 Dose (MEC-1 cells; Exp 2, same effect as MOR00208 1.50E−02 μg/mL + venetoclax 3.0 μM): * 1.00E+03^ μg/mL
